Experimental data: patent US6737383B1, “Herbicidal oxadiazolidines” (priority 1999, dated 2004)

Columns and labels:
smallflower flatsedge = assay: Test B flood test smallflower flatsedge; format: in vivo, Cyperus difformis; conditions: for Plant response rating, S. Flatsedge (0 to 10 scale, 0 is no effect, 10 is complete control): Rate 62 g/ha, Pre-emergence; for Plant response rating, S. Flatsedge (0 to 10 scale, 0 is no effect, 10 is complete control) / S. Flatsedge plant response rating (0 to 10 scale, 0 is no effect, 10 is complete control): flood test species, visual evaluation after twelve to sixteen days; for S. Flatsedge plant response rating (0 to 10 scale, 0 is no effect, 10 is complete control): Rate 125 g/ha, under heading Pre-emergence
Procedure: (§1) At the same time, these crop and weed species were also treated with postemergence applications of test chemicals formulated in the same manner. Plants ranged in height from 2 to 18 cm (1- to 4-leaf stage) for postemergence treatments. Plant species in the flood test consisted of rice (Oryza sativa), smallflower flatsedge (Cyperus difformis), duck salad (Heteranthera limosa) and bamyardgrass (Echinochloa crus-galli) grown to the 2-leaf stage for testing. Treated plants and controls were maintained in a greenhouse for twelve to sixteen days, after which all species were compared to controls and visually evaluated. Plant response ratings, summarized in Table B, are based on a scale of 0 to 10 where 0 is no effect and 10 is complete control. A dash (−) response means no test result.

bamyardgrass = assay: Test B flood test barnyardgrass; format: in vivo, Echinochloa crus-galli; conditions: for Plant response rating, Barnyardgrass (0 to 10 scale, 0 is no effect, 10 is complete control): Rate 62 g/ha, Pre-emergence; for Plant response rating, Barnyardgrass (0 to 10 scale, 0 is no effect, 10 is complete control) / Barnyardgrass plant response rating (0 to 10 scale, 0 is no effect, 10 is complete control): flood test species, visual evaluation after twelve to sixteen days; for Barnyardgrass plant response rating (0 to 10 scale, 0 is no effect, 10 is complete control): Rate 125 g/ha, under heading Pre-emergence
Procedure: as §1

duck salad = assay: Test B flood test duck salad; format: in vivo, Heteranthera limosa; conditions: for Plant response rating, Ducksalad (0 to 10 scale, 0 is no effect, 10 is complete control): Rate 62 g/ha, Pre-emergence; for Plant response rating, Ducksalad (0 to 10 scale, 0 is no effect, 10 is complete control) / Ducksalad plant response rating (0 to 10 scale, 0 is no effect, 10 is complete control): flood test species, visual evaluation after twelve to sixteen days; for Ducksalad plant response rating (0 to 10 scale, 0 is no effect, 10 is complete control): Rate 125 g/ha, under heading Pre-emergence
Procedure: as §1

rice = assay: Test B flood test rice; format: in vivo, Oryza sativa
Outline: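 Plants were grown to the 2-leaf stage before treatment with test chemical, then held in a greenhouse for twelve to sixteen days. Injury was visually rated against untreated controls on a 0–10 scale, where 0 is no effect and 10 is complete control.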

[1] = Rate 250 g/ha, Pre-emergence (flood test species), scale 0 to 10, 0 is no effect, 10 is complete control
[2] = Rate 500 g/ha, Pre-emergence section of Table B, 0 to 10 scale (0 no effect, 10 complete control)

Compound	Plant response rating, S. Flatsedge (0 to 10 scale, 0 is no effect, 10 is complete control) (smallflower flatsedge)	S. Flatsedge plant response rating (0 to 10 scale, 0 is no effect, 10 is complete control) (smallflower flatsedge)	S. Flatsedge plant response rating (smallflower flatsedge; [1])	S. Flatsedge plant response rating (smallflower flatsedge; [2])	Plant response rating, Barnyardgrass (0 to 10 scale, 0 is no effect, 10 is complete control) (bamyardgrass)	Barnyardgrass plant response rating (0 to 10 scale, 0 is no effect, 10 is complete control) (bamyardgrass)	Barnyardgrass plant response rating (bamyardgrass; [1])	Barnyardgrass plant response rating (bamyardgrass; [2])	Plant response rating, Ducksalad (0 to 10 scale, 0 is no effect, 10 is complete control) (duck salad)	Ducksalad plant response rating (0 to 10 scale, 0 is no effect, 10 is complete control) (duck salad)	Ducksalad plant response rating (duck salad; [1])	Ducksalad plant response rating (duck salad; [2])	Plant response rating, Rice (0 to 10 scale, 0 is no effect, 10 is complete control) (rice; Rate 62 g/ha, flood test species, Pre-emergence, visual evaluation after twelve to sixteen days)	Rice plant response rating (0 to 10 scale, 0 is no effect, 10 is complete control) (rice; Rate 125 g/ha, under heading Pre-emergence, flood test species, visual evaluation after twelve to sixteen days)	Rice plant response rating (rice; [1])	Rice plant response rating (rice; [2])
CC(C)N(C(=O)n1oc(=O)n(CC2CC2)c1=O)c1ccc(Cl)cc1 [Compound 539]	0	0	0	0	0	0	0	0	0	0	0	0	0	0	0	0
CCCCCCn1c(=O)on(C(=O)N(c2ccc(Cl)cc2)C(C)C)c1=O [Compound 529]	0	0	0	0	0	0	0	2	0	0	0	0	–	–	–	–
